Test results reported in the NIST ThermoML archive (doi:10.1021/je900266h).
Numbers after ± are expanded uncertainties.

Experiment: refractive index (Na D-line) (dimensionless); wn = mass fraction of the nth substance listed
Conditions: 101 kPa, Liquid, Standard Abbe refractometry

CCO [ethanol] + O
refractive index
Conditions	308.15 K	318.15 K
w1 = 0.02468	1.33282 ± 0.00041	1.33124 ± 0.00041
w1 = 0.0538	1.33455 ± 0.00041	1.33301 ± 0.00041
w1 = 0.07815	1.33619 ± 0.00041	1.33449 ± 0.00041
w1 = 0.1014	1.33771 ± 0.00041	1.3358 ± 0.00041
w1 = 0.1249	1.33923 ± 0.00041	1.33736 ± 0.00041
w1 = 0.1528	1.34104 ± 0.00041	1.33895 ± 0.00041
w1 = 0.1778	1.34272 ± 0.00041	1.34054 ± 0.00041
w1 = 0.2036	1.34435 ± 0.00041	1.3418 ± 0.00041
w1 = 0.225	1.34551 ± 0.00041	1.34311 ± 0.00041
w1 = 0.247	1.34682 ± 0.00041	1.34418 ± 0.00041
w1 = 0.2699	1.3479 ± 0.00041	1.34519 ± 0.00041
w1 = 0.2955	1.34922 ± 0.00041	1.3464 ± 0.00041
w1 = 0.3241	1.35053 ± 0.00042	1.34772 ± 0.00042
w1 = 0.3468	1.35164 ± 0.00042	1.34853 ± 0.00042
w1 = 0.3723	1.35252 ± 0.00042	1.34932 ± 0.00042
w1 = 0.3959	1.35342 ± 0.00042	1.34997 ± 0.00042
w1 = 0.4255	1.35448 ± 0.00042	1.35103 ± 0.00042
w1 = 0.4462	1.35501 ± 0.00042	1.35147 ± 0.00042
w1 = 0.4735	1.35566 ± 0.00042	1.35212 ± 0.00042
w1 = 0.4969	1.3562 ± 0.00042	1.35251 ± 0.00042
w1 = 0.5239	1.35667 ± 0.00042	1.35301 ± 0.00042
w1 = 0.5458	1.35731 ± 0.00042	1.3533 ± 0.00042
w1 = 0.5709	1.3577 ± 0.00042	1.35369 ± 0.00042
w1 = 0.5972	1.35801 ± 0.00042	1.35385 ± 0.00042
w1 = 0.6203	1.35825 ± 0.00042	1.35417 ± 0.00042
w1 = 0.6467	1.35839 ± 0.00042	1.3543 ± 0.00042
w1 = 0.6694	1.35867 ± 0.00042	1.35455 ± 0.00042
w1 = 0.6959	1.35875 ± 0.00042	1.35454 ± 0.00042
w1 = 0.7187	1.35892 ± 0.00042	1.35469 ± 0.00042
w1 = 0.7494	1.35895 ± 0.00042	1.35471 ± 0.00042
w1 = 0.7672	1.35902 ± 0.00042	1.35475 ± 0.00042
w1 = 0.7993	1.35879 ± 0.00042	1.35484 ± 0.00042
w1 = 0.8187	1.35887 ± 0.00042	1.35478 ± 0.00042
w1 = 0.8451	1.3586 ± 0.00042	1.35457 ± 0.00042
w1 = 0.867	1.35844 ± 0.00042	1.35421 ± 0.00042
w1 = 0.9028	1.35782 ± 0.00042	1.35374 ± 0.00042
w1 = 0.9235	1.35743 ± 0.00042	1.35333 ± 0.00042
w1 = 0.9481	1.35677 ± 0.00042	1.35255 ± 0.00042
w1 = 0.9752	1.3559 ± 0.00042	1.35171 ± 0.00042
w1 = 1	1.35477 ± 0.00042	1.35068 ± 0.00042
